Measurements published in US5849923A, “Heterocyclic-substituted naphthalenyl retinobenzoic acid derivatives” (Bristol-Myers Squibb Company, priority 1996, dated 1998).
Where two headings read alike, the source gives them in different places.

What was measured:
L2987 = assay: Cytotoxicity assay (alamarBlue), lung line L2987, experiment 2; assay type: cell-based; settings: Homo sapiens, read-out: IC50 values for L2987 experiment 2
Experimental: FIG. 1 is the cytotoxicity dose response curves for lung line L2987. […] Briefly, the assayed involved plating 1000 cells per well in a volume of 120 μL in a 96 well flat-bottom dish (Corning) on day -1. Twenty-four hours later the appropriate dilution of a compound of formula I was added in a volume of 30 μL complete medium (final volume 150 μL). The plates were sealed with a plate sealer (Dynatech Labs) to prevent evaporation. On day 5 the mylar film was removed and 15 μL of sterile alamarblue was added to each well and the cells were incubated 37° C. 5% CO2 for two hours. Using a Vmax plate reader the optical density for each well was determined having the […]. The 100% signal was determined for cells grown in complete medium containing only 0.5% DMSO. All wells were set-up in triplicate and the mean values were plotted in FIG. 1.

rhino mouse utriculi = assay: Rhino mouse utriculi reduction assay; assay type: in vivo, hairless rhino mice (hr^rh /hr^rh); settings: once daily for 5 days; for ED30 (concentration to reach 30% (half-maximum) utriculi reduction): topical in ethanol vehicle (50 μl), female rhino mice, 0.00033 mM to 16.5 mM; for activity in rhino mouse utriculi reduction model (in words): topical
Experimental: Representatives from compounds of formula I were tested for their effect on utriculi reduction on rhino mouse and directly compared to all-trans retinoic acid.
Six to nine week old female hairless rhino mice (hr^rh /hr^rh) were produced in the Bristol-Myers Squibb colony. Test retinoids in ethanol vehicle (50 μl) were applied to the dorsal area (approximately 1.5×3 cm^2) of rhino mice once daily for 5 days (Monday to Friday). For various retinoids, a dose response was obtained with concentrations ranging from 0.00033 mM to 16.5 mM. The animals were sacrificed on the following Monday by CO2 inhalation. A 7/8" full thickness punch was taken from the central dorsal area of each animal. The epidermis of the biopsy was removed from the dermis after incubation in 0.5% acetic acid overnight at 4° C. The separated epidermis was then fixed in formalin, dehydrated with ethanol, and cleared in xylene. To determine the utriculi diameter, each epidermis sheet was placed on a glass slide in xylene. For each specimen, the diameter of 40 utricules was measured with an image analysis system (IBM PC, Image Measure program and Olympus microscope with video camera). % Utriculi reduction was calculated as [formula]
Since the maximum effect in this assay is approximately 60% utriculi reduction, the activity of various test compounds is reported as ED30 in Table 1, the concentration to reach 30% (half-maximum) utriculi reduction.

[1] = system: squamous-cell carcinoma of the head and neck; settings: Hong, W. K. et al., N. Engl. J. Med., 1990; cited from earlier work
[2] = 120 h, L2987, experiment 2, read on day 5, alamarBlue

CC1=C(/C=C/C(C)=C/C=C/C(C)=C/C(=O)O)C(C)(C)CCC1 [All trans retinoic acid, reference compound]
IC50 (L2987; L2987, 120 h): 68 µM

CC1(C)CC=C(c2cccs2)c2cc(C(=O)Nc3ccc(C(=O)O)cc3)ccc21 [I^2 a, 4-[[[[5,6-Dihydro-5,5-dimethvl-8-(2-thienyl)]-2naphthalenyl]carbonyl]amino]benzoic acid]
IC50 (L2987; [2]): 64 µM
ED30 (concentration to reach 30% (half-maximum) utriculi reduction) (rhino mouse utriculi): > 10000 µM

Cc1ccsc1C1=CCC(C)(C)c2ccc(C(=O)Nc3ccc(C(=O)O)cc3)cc21 [I^2 b]
IC50 (L2987; [2]): 50 µM

CC1(C)CC=C(c2ccoc2)c2cc(C(=O)Nc3ccc(C(=O)O)cc3)ccc21 [I^2 d, 4-[[[[5,6-Dihydro-5,5-dimethyl-8-(3-furyl)]-2-naphthalenyl]carbonyl]amino]benzoic acid]
activity in rhino mouse utriculi reduction model (in words) (rhino mouse utriculi): inactive

CC1(C)CC=C(c2ccsc2)c2cc(C(=O)Nc3ccc(C(=O)O)cc3)ccc21 [I^2 e, 4-[[[[5,6-Dihydro-5,5-dimethyl-8-(3-thienyl)]-2-naphthalenyl]carbonyl]amino]benzoic acid]
ED30 (concentration to reach 30% (half-maximum) utriculi reduction) (rhino mouse utriculi): 3890 µM

CC1(C)CC=C(c2cccnc2)c2cc(C(=O)Nc3ccc(C(=O)O)cc3)ccc21 [I^2 f, 4-[[[[5,6-Dihydro-5,5-dimethyl-8-(3-pyridinyl)]-2-naphthalenyl]carbonyl]amino]benzoic acid]
activity in rhino mouse utriculi reduction model (in words) (rhino mouse utriculi): inactive

Cn1cccc1C1=CCC(C)(C)c2ccc(C(=O)Nc3ccc(C(=O)O)cc3)cc21 [I^2 g, 4-[[[[5,6-Dihydro-5,5-dimethyl-8-(2-N-methylpyrolyl)]-2-naphthalenyl]carbonyl]amino]benzoic acid]
ED30 (concentration to reach 30% (half-maximum) utriculi reduction) (rhino mouse utriculi): 2070 µM

CC1=C(/C=C/C(C)=C/C=C/C(C)=C\C(=O)O)C(C)(C)CCC1 [Isotretinoin]
prevention of second primary tumors (in words) [1]: useful in prevention of second primary tumors
